Experimental data: patent US20100137433A1, “Production of Rosmarinic Acid from Spearmint and uses Thereof” (priority 2007, published 2010)

Experiments:
[1] = system: mild allergic asthmatic subjects; experiment: Methacholine inhalation test (methacholine PC20, airway hyper-responsiveness); assay type: in vivo, human; conditions: tea 2 cups per day for 7 days
Description: (§1) Subjects. Two subjects (45 and 57 year old, male) were recruited for the study. Inclusion criteria required subjects to be non-smokers with stable, mild atopic asthma, free of other lung disease. Subjects were required to have FEV1 (forced expiratory volume in 1 second)>70% of predicted, baseline methacholine PC20 (the provocative concentration of methacholine causing a 20% fall in FEV1)<16 mg/mL, and development of an allergen-induced EAR (at least 20% fall in FEV1 within 2 h post allergen inhalation) and LAR (at least 15% fall FEV1 between 3-7 h post allergen inhalation).
(§2) Study design. Subjects meeting the inclusion criteria underwent allergen challenge with placebo and rosmarinic acid, in this order, separated by a washout period of at least 4 weeks. Placebo was inhaled PBS on 2 consecutive mornings before challenge. Rosmarinic acid treatment consisted of 7 days of 2 cups of tea per day. Day 6 consisted of pre-dose measurements of airway hyperresponsiveness and sputum cells. On Day 7 allergen inhalation challenge was performed. Measurements of FEV1 were taken at regular intervals until 7 h after challenge and sputum cells were then collected. […]
Methacholine inhalation challenge was performed as described by Cockcroft (1985). The test was terminated when a fall in FEV1 of 20% of the baseline value occurred, and the methacholine PC20 is calculated.

[2] = system: mild allergic asthmatic subjects; experiment: Allergen inhalation challenge (allergen-induced bronchoconstriction, EAR and LAR); assay type: in vivo, human
Description: as §1, with “(person)” for “(45 and 57 year old, male)”
as §2
Allergen challenge was performed as described by O'Byrne (1987), and the concentration of allergen extract (Omega Laboratories, Montreal, QC) for inhalation was determined from a formula described by Cockcroft et al. (1987). […]

[3] = system: mild allergic asthmatic subjects; experiment: Sputum analysis (allergen-induced airway inflammation, sputum eosinophils); assay type: in vivo, human; conditions: vs placebo, two subjects, FIGS. 4A-4B
Description: as §1, with “(person)” for “(45 and 57 year old, male)”
as §2
Sputum was induced and processed using the method described by Pizzichini et al. (1996). Differential cell counts were obtained and an aliquot of cells were lysed for quantitative PCR measurements.

[4] = Stability of rosmarinic acid in dried and stored spearmint 700B tissues; assay type: physicochemical; conditions: heated to 80° C. for an additional 24 hours after drying to 11.7% moisture
Description: The level of rosmarinic acid in dried and stored samples of spearmint line 700B tissues was followed over time to determine its stability. Spearmint plant tissue was harvested, dried, and stored, and levels of rosmarinic acid were determined essentially as described by Fletcher et al., (2005a). Plant material was harvested manually from the field and placed in large net bags. The bagged mint […] spread evenly over a grate and dried in a drying oven at a temperature of 35° C. for 96 hours. The stems and other debris were separated from the leaves, and the leaves were crushed to a size suitable for tea. The crushed leaf material was transferred to zip-lock bags and stored at room temperature in the absence of light. Additionally, to study the effect of drying temperature on stability of RA, a sample of spearmint plant material was dried to 11.7% moisture as above for determination of RA content. After 96 hours, a sample of the material was placed into a drying oven and heated to 80° C. for an additional 24 hours, and RA levels were also determined.

[5] = cited from earlier work
[6] = system: Aβ25-35-injected mice; conditions: Aβ25-35 injection; cited from earlier work
[7] = system: mice exposed to diesel dust particulates; conditions: 2 mg/day for 3 days prior to exposure; cited from earlier work
[8] = system: seasonal allergic rhinitis; conditions: active treatment; cited from earlier work

Amount of RA in the tissues before and after the 80° C. drying step [4]: remained the same
Compound: O=C(/C=C/c1ccc(O)c(O)c1)O[C@H](Cc1ccc(O)c(O)c1)C(=O)O [RA, α-O-caffeoyl-3,4-dihydroxyphenyl-lactic acid]
Methacholine PC20 ([1]; subject 19, 24 h post allergen challenge (cat)): 0.38 mg/mL
Methacholine PC20 ([1]; subject 20, 24 h post allergen challenge (HDMDP)): 1.27 mg/mL
Allergen-induced EAR ([2]; subject #20, vs placebo, allergen 1:128 dilution with RA, 1:64 with diluent): lower
Effect on the allergen-induced EAR or LAR ([2]; two subjects, limited sample size): does not appear to have any effect
% sputum eosinophils post allergen [3]: consistently lower
Recovery of intact rosmarinic acid and metabolites in urine ([5]; rat urine): 0.077 % of the amount ingested
Time to full concentration in the blood plasma ([5]; rats, absorbed via the small intestine): ≤ 30 min
Effective lowest dose preventing Aβ25-35-induced nitration of proteins in the hippocampus [6]: 0.25 mg/kg
Protein and DNA damage in lung tissue (postmortem histological staining) compared to controls [7]: marked decrease
Numbers of neutrophils and eosinophils in nasal lavage fluid [8]: significantly decreased
